Experimental data from article PMC10006169, “A phase I trial of LXS196, a protein kinase C (PKC) inhibitor, for metastatic uveal melanoma” (British Journal of Cancer, 2023).
“And” between values parts separate entries of the source, which are not always exact repeats. Equal values may be shown once.

Test system: patients with MUM
Experiment: First cycle dose-limiting toxicities, phase I dose escalation
Type: in vivo
Conditions: for Maximum tolerated dose (MTD): BLRM and EWOC
Procedure: The study protocol and amendments were approved by the Independent Ethics Committee or Institutional Review Board for each centre, and all patients provided written informed consent. The study was conducted according to the principles of the Declaration of Helsinki and performed in compliance with Good Clinical Practice. All patients were aged ≥18 years old and had biopsy-proven MUM with progressive and measurable disease. […] There was no eligibility limit to the number of prior lines of therapy, including PKC inhibitors other than LXS196.
During dose escalation, patients received oral LXS196 either once daily (QD; 100–1000 mg) or twice daily (BID; 200–400 mg) in 28-day cycles until disease progression, intolerable toxicity or withdrawal of consent (Supplementary Fig. 1). Dosing was omitted on the second day of the first cycle (C1D2) to allow for longer post-dose sampling in order to better characterise PK. LXS196 was given on an empty stomach, at least 1 h before or 2 h after a meal. Dose escalation was guided by safety, PK data and a two-parameter Bayesian Logistic Regression Model (BLRM) employing escalation with overdose control (EWOC) criteria. The DLT period lasted 28 days after the first dose of LXS196. […] Upon determination of the MTD/RDE, the expansion part of the study was opened to further evaluate the safety, tolerability, PK and PD of LXS196 at the RDE in patients with MUM. No hypothesis testing was planned in this study, and therefore, no formal sample size calculation was needed. The sample size was selected to ensure the BLRM had adequate operating characteristics when selecting the MTD/RDE.
Routine safety assessments, including laboratory assessments, physical examinations, vital signs and electrocardiograms (ECGs), were conducted at regular intervals throughout the study and more frequently as needed following patient assessment by the treating physician. Adverse events (AEs) were assessed continuously according to the National Cancer Institute Common Terminology Criteria for Adverse Events (NCI-CTCAE) v4.03.

CC1(N)CCN(c2cccnc2NC(=O)c2nc(-c3ncccc3C(F)(F)F)cnc2N)CC1 [LXS196]
Generalised oedema DLT (100 mg QD n=3): 0 n (%) | Hypotension DLT (100 mg QD n=3): 0 n (%) | Nausea DLT (100 mg QD n=3): 0 n (%) | Neutropenia DLT (100 mg QD n=3): 0 n (%) | Total DLT events (100 mg QD n=3): 0 n (%) | Vomiting DLT (100 mg QD n=3): 0 n (%) | Generalised oedema DLT (200 mg BID n=5): 0 n (%) | Hypotension DLT (200 mg BID n=5): 0 n (%) | Nausea DLT (200 mg BID n=5): 0 n (%) | Neutropenia DLT (200 mg BID n=5): 0 n (%) | Total DLT events (200 mg BID n=5): 0 n (%) | Vomiting DLT (200 mg BID n=5): 0 n (%) | Generalised oedema DLT (200 mg QD n=4): 0 n (%) | Hypotension DLT (200 mg QD n=4): 0 n (%) | Neutropenia DLT (200 mg QD n=4): 0 n (%) | Total DLT events (200 mg QD n=4): 2 (50.0) n (%) | Nausea DLT (200 mg QD n=4, Grade 3): 1 (25.0) (Grade 3) n (%) | Vomiting DLT (200 mg QD n=4, Grade 3): 1 (25.0) (Grade 3) n (%) | Generalised oedema DLT (300 mg BID n=6): 0 n (%) | Hypotension DLT (300 mg BID n=6): 0 n (%) | Nausea DLT (300 mg BID n=6): 0 n (%) | Neutropenia DLT (300 mg BID n=6): 0 n (%) | Total DLT events (300 mg BID n=6): 0 n (%) | Vomiting DLT (300 mg BID n=6): 0 n (%) | Generalised oedema DLT (300 mg QD n=15): 0 n (%) | Hypotension DLT (300 mg QD n=15): 0 n (%) | Nausea DLT (300 mg QD n=15): 0 n (%) | Neutropenia DLT (300 mg QD n=15): 0 n (%) | Total DLT events (300 mg QD n=15): 0 n (%) | Vomiting DLT (300 mg QD n=15): 0 n (%) | Hypotension DLT (400 mg BID n=6): 1 (16.7) n (%) | Nausea DLT (400 mg BID n=6): 0 n (%) | Neutropenia DLT (400 mg BID n=6): 0 n (%) | Total DLT events (400 mg BID n=6): 2 (33.4) n (%) | Vomiting DLT (400 mg BID n=6): 0 n (%) | Generalised oedema DLT (400 mg BID n=6, Grade 3): 1 (16.7) (Grade 3) n (%) | Generalised oedema DLT (500 mg QD n=11): 0 n (%) | Nausea DLT (500 mg QD n=11): 0 n (%) | Total DLT events (500 mg QD n=11): 3 (27.3) n (%) | Vomiting DLT (500 mg QD n=11): 0 n (%) | Hypotension DLT (500 mg QD n=11, Grade 3): 2 (18.2) (Grade 3) n (%) | Neutropenia DLT (500 mg QD n=11, Grade 4): 1 (9.1) (Grade 4) n (%) | Generalised oedema DLT (800 mg QD n=1): 0 n (%) | Nausea DLT (800 mg QD n=1): 0 n (%) | Neutropenia DLT (800 mg QD n=1): 0 n (%) | Total DLT events (800 mg QD n=1): 1 (100) n (%) | Vomiting DLT (800 mg QD n=1): 0 n (%) | Hypotension DLT (800 mg QD n=1, Grade 4): 1 (100) (Grade 4) n (%) | Generalised oedema DLT (1000 mg QD n=4): 0 n (%) | Nausea DLT (1000 mg QD n=4): 0 n (%) | Neutropenia DLT (1000 mg QD n=4): 0 n (%) | Total DLT events (1000 mg QD n=4): 2 (50.0) n (%) | Vomiting DLT (1000 mg QD n=4): 0 n (%) | Hypotension DLT (1000 mg QD n=4, Grade 2 and 4): 2 (50.0) (Grade 2 and 4) n (%) | Generalised oedema DLT (All BID n=17): 1 (5.9) n (%) | Hypotension DLT (All BID n=17): 1 (5.9) n (%) | Nausea DLT (All BID n=17): 0 n (%) | Neutropenia DLT (All BID n=17): 0 n (%) | Total DLT events (All BID n=17): 2 (11.8) n (%) | Vomiting DLT (All BID n=17): 0 n (%) | Generalised oedema DLT (All QD n=38): 0 n (%) | Hypotension DLT (All QD n=38): 5 (13.2) n (%) | Nausea DLT (All QD n=38): 1 (2.6) n (%) | Neutropenia DLT (All QD n=38): 1 (2.6) n (%) | Total DLT events (All QD n=38): 8 (21.0) n (%) | Vomiting DLT (All QD n=38): 1 (2.6) n (%) | Generalised oedema DLT (All patients n=55): 1.8 n (%) and 1 (1.8) n (%) | Hypotension DLT (All patients n=55): 6 (10.9) n (%) | Nausea DLT (All patients n=55): 1.8 n (%) and 1 (1.8) n (%) | Neutropenia DLT (All patients n=55): 1.8 n (%) and 1 (1.8) n (%) | Total DLT events (All patients n=55): 16.4 n (%) | Vomiting DLT (All patients n=55): 1.8 n (%) and 1 (1.8) n (%) | Recommended dose for expansion (RDE) (BID): 300 mg | Maximum tolerated dose (MTD) (BID schedule): 400 mg | Maximum tolerated dose (MTD) (QD schedule): 500 mg | Doses at which hypotension DLT occurred (most common DLT): ≥ 500 mg/day
